Assay results reported in PMC7846792, “Perception of a divergent family of phytocytokines by the Arabidopsis receptor kinase MIK2” (Nature Communications, 2021).
No end group written: not given here.

System: A. thaliana seedlings
Experiment: Seedling growth inhibition (fresh weight)
Format: in vivo, Arabidopsis thaliana
Settings: mock mean = 1
Protocol: Four-day-old seedlings growing on MS plates were transferred individually into separate wells of transparent 48-well tissue culture plates (Greiner Bio-One) containing 500 μL of liquid MS media with/without elicitor addition. The plates were then transferred back to the growth conditions for an additional 10 days before seedlings were blot-dried and weighed.

In the case of ETPPSRSRRGGGG [SCOOP1], the “Seedling fresh weight (Fig3C), relative to mock” value (Col-0, 1 μM, replicate 1) is reported as 0.767, the “Seedling fresh weight (Fig3C), relative to mock” value (Col-0, 1 μM, replicate 2) is reported as 0.7214 and the “Seedling fresh weight (Fig3C), relative to mock” value (Col-0, 1 μM, replicate 3) is reported as 0.5418. For the same sequence, the “Seedling fresh weight (Fig3C), relative to mock” value (Col-0, 1 μM, replicate 4) was 0.6909, the “Seedling fresh weight (Fig3C), relative to mock” value (Col-0, 1 μM, replicate 5) was 0.3379 and the “Seedling fresh weight (Fig3C), relative to mock” value (Col-0, 1 μM, replicate 6) was 0.5266. The “Seedling fresh weight (Fig3C), relative to mock” value (Col-0, 1 μM, replicate 7) was 0.5662, the “Seedling fresh weight (Fig3C), relative to mock” value (Col-0, 1 μM, replicate 8) was 0.6453 and the “Seedling fresh weight (Fig3C), relative to mock” value (Col-0, 1 μM, replicate 9) was 0.5753. For the same sequence, the “Seedling fresh weight (Fig3C), relative to mock” value (Col-0, 1 μM, replicate 10) was 0.5996, the “Seedling fresh weight (Fig3C), relative to mock” value (Col-0, 1 μM, replicate 11) was 0.6118 and the “Seedling fresh weight (Fig3C), relative to mock” value (Col-0, 1 μM, replicate 12) was 0.4961. For the same sequence, the “Seedling fresh weight (Fig3C), relative to mock” value (Col-0, 10 μM, replicate 1) was 0.2426, the “Seedling fresh weight (Fig3C), relative to mock” value (Col-0, 10 μM, replicate 2) was 0.2002 and the “Seedling fresh weight (Fig3C), relative to mock” value (Col-0, 10 μM, replicate 3) was 0.1668. For the same sequence, the “Seedling fresh weight (Fig3C), relative to mock” value (Col-0, 10 μM, replicate 4) was 0.1698, the “Seedling fresh weight (Fig3C), relative to mock” value (Col-0, 10 μM, replicate 5) was 0.06065 and the “Seedling fresh weight (Fig3C), relative to mock” value (Col-0, 10 μM, replicate 6) was 0.1729. For the same sequence, the “Seedling fresh weight (Fig3C), relative to mock” value (Col-0, 10 μM, replicate 7) was 0.1759, the “Seedling fresh weight (Fig3C), relative to mock” value (Col-0, 10 μM, replicate 8) was 0.2305 and the “Seedling fresh weight (Fig3C), relative to mock” value (Col-0, 10 μM, replicate 9) was 0.2092. The “Seedling fresh weight (Fig3C), relative to mock” value (Col-0, 10 μM, replicate 10) was 0.1607, the “Seedling fresh weight (Fig3C), relative to mock” value (Col-0, 10 μM, replicate 11) was 0.2244 and the “Seedling fresh weight (Fig3C), relative to mock” value (Col-0, 10 μM, replicate 12) was 0.2032. For the same sequence, the “Seedling fresh weight (Fig3C), relative to mock” value (mik2-1, 1 μM, replicate 1) was 1.15, the “Seedling fresh weight (Fig3C), relative to mock” value (mik2-1, 1 μM, replicate 2) was 1.076 and the “Seedling fresh weight (Fig3C), relative to mock” value (mik2-1, 1 μM, replicate 3) was 1.026. For the same sequence, the “Seedling fresh weight (Fig3C), relative to mock” value (mik2-1, 1 μM, replicate 4) was 1.019, the “Seedling fresh weight (Fig3C), relative to mock” value (mik2-1, 1 μM, replicate 5) was 1.076 and the “Seedling fresh weight (Fig3C), relative to mock” value (mik2-1, 1 μM, replicate 6) was 0.9888. For the same sequence, the “Seedling fresh weight (Fig3C), relative to mock” value (mik2-1, 1 μM, replicate 7) was 1.049, the “Seedling fresh weight (Fig3C), relative to mock” value (mik2-1, 1 μM, replicate 8) was 1.026 and the “Seedling fresh weight (Fig3C), relative to mock” value (mik2-1, 1 μM, replicate 9) was 0.9619. The “Seedling fresh weight (Fig3C), relative to mock” value (mik2-1, 1 μM, replicate 10) was 0.9215, the “Seedling fresh weight (Fig3C), relative to mock” value (mik2-1, 1 μM, replicate 11) was 0.9619 and the “Seedling fresh weight (Fig3C), relative to mock” value (mik2-1, 1 μM, replicate 12) was 0.9922. The “Seedling fresh weight (Fig3C), relative to mock” value (mik2-1, 10 μM, replicate 1) was 1.089, the “Seedling fresh weight (Fig3C), relative to mock” value (mik2-1, 10 μM, replicate 2) was 0.9298 and the “Seedling fresh weight (Fig3C), relative to mock” value (mik2-1, 10 μM, replicate 3) was 0.9231. For the same sequence, the “Seedling fresh weight (Fig3C), relative to mock” value (mik2-1, 10 μM, replicate 4) was 0.9738, the “Seedling fresh weight (Fig3C), relative to mock” value (mik2-1, 10 μM, replicate 5) was 0.9332 and the “Seedling fresh weight (Fig3C), relative to mock” value (mik2-1, 10 μM, replicate 6) was 0.9028. The “Seedling fresh weight (Fig3C), relative to mock” value (mik2-1, 10 μM, replicate 7) was 1.008, the “Seedling fresh weight (Fig3C), relative to mock” value (mik2-1, 10 μM, replicate 8) was 0.9704 and the “Seedling fresh weight (Fig3C), relative to mock” value (mik2-1, 10 μM, replicate 9) was 1.085. For the same sequence, the “Seedling fresh weight (Fig3C), relative to mock” value (mik2-1, 10 μM, replicate 10) was 1.031, the “Seedling fresh weight (Fig3C), relative to mock” value (mik2-1, 10 μM, replicate 11) was 0.9569 and the “Seedling fresh weight (Fig3C), relative to mock” value (mik2-1, 10 μM, replicate 12) was 0.967.
